The results in this text go back to patent US7825127B2, “Method for treating cancer” (Takeda Pharmaceutical Company, Limited, priority 2006, dated 2010).

Holding throughout (experiment): Sulforhodamine B cell growth inhibitory assay
Holding throughout (type): cell-based

The subject of one test is SK-BR-3. The note with it: SK-BR-3 (FIG. 2B), 5 days. The procedure: (§1) Sulforhodamine B staining method was used for cell growth inhibitory assay. Each cell was plated on a 96 well plate (Nunc). The next day, compound X was serially diluted and added thereto. The cell lines used and the terms of incubation of the compound are indicated separately. To immobilize the cells, 25% glutaraldehyde solution (Wako, 50 μL) was added to the culture medium (200 μL) and the mixture was left standing at room temperature for 15 min.
(§2) The plate was then washed once with PBS (Invitrogen), 200 μL of PBS was added, 25 μL of 50% trichloroacetic acid (Wako) was added, and the mixture was left standing at 4° C. for 1 hr or longer. The plate was washed 5 times with tap water, redundant water was removed by slamming the plate against paper towels. A 1% (W/W) acetic acid solution (50 μL) containing 0.4% (w/v) Sulforhodamine B (SRB, Sigma) was added to each well and, 15 min later, the plate was washed 3 times with 1% acetic acid solution. The plate was thoroughly dried, 10 mM Tris solution was added, and the mixture was stirred well in a plate shaker, and the absorbance at 550 nm was measured (Bio-Rad, Benchmark Plus).

A further test relates to MCF-7. The note with it: MCF-7 (FIG. 2C), 3 days. The protocol: as §1, §2
A further test concerns BT-474. The settings on record: BT-474 (FIG. 2A), 5 days. The procedure: as §1, §2

With `CC(C)(O)CC(=O)NCCn1ccc2ncnc(Nc3ccc(Oc4cccc(C(F)(F)F)c4)c(Cl)c3)c21` [compound X, N-{2-[4-({3-chloro-4-[3-(trifluoromethyl)phenoxy]phenyl}amino)-5H-pyrrolo[3,2-d]pyrimidin-5-yl]ethyl}-3-hydroxy-3-methylbutanamide], the “sensitivity of cells to growth inhibition” value in the test on SK-BR-3 was “high-sensitive”; in the test with MCF-7 it was “low-sensitive”; with BT-474, “high-sensitive”.
